From article PMC4685510, “A Cell Biologist’s Field Guide to Aurora Kinase Inhibitors” (Frontiers in Oncology, 2015)

Tests used:
Experiment in all cases: biochemical
Type in all cases: biochemical
[1] = biological target: 363 human kinases (including Aurora A/B/C) (Homo sapiens, UniProt Q15375); conditions: EPHA7, [ATP] 100 µM; for remaining activity at 0.1 µM: 100 nM; for remaining activity at 0.1 µM / remaining activity at 0.5 µM: read-out: % Enzyme Activity (relative to DMSO controls)
Excerpt: (§1) However, the Aurora A/B selectivity ratios derived from our in vitro and in vivo data can be compared to prioritize inhibitors.

[2] = biological target: T1, 363 human kinases (including Aurora A/B/C) (Homo sapiens, UniProt Q13188); conditions: MST2/STK3; for remaining activity at 0.1 µM: 100 nM; for remaining activity at 0.1 µM / remaining activity at 0.5 µM: read-out: % Enzyme Activity (relative to DMSO controls)
T1 sequence (Q13188 1-491): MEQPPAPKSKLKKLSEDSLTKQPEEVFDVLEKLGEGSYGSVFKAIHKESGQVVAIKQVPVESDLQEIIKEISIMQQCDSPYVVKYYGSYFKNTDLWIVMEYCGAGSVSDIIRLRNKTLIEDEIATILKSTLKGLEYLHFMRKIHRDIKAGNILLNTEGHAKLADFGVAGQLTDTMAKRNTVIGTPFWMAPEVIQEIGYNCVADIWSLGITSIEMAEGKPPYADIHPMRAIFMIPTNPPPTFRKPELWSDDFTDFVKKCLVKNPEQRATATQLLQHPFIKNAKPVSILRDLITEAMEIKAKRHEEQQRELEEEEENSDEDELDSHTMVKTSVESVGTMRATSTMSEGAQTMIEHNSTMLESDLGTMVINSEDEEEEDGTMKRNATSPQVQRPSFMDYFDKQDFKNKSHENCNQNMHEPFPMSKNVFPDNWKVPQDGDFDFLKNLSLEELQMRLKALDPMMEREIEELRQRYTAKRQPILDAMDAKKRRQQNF
Excerpt: as §1

[3] = biological target: 363 human kinases (including Aurora A/B/C) (Homo sapiens, UniProt Q13464); conditions: ROCK1; for remaining activity at 0.1 µM: 100 nM; for remaining activity at 0.1 µM / remaining activity at 0.5 µM: read-out: % Enzyme Activity (relative to DMSO controls)
Excerpt: as §1

[4] = biological target: 363 human kinases (including Aurora A/B/C) (Homo sapiens, UniProt P49840); conditions: GSK3a; for remaining activity at 0.1 µM: 100 nM; for remaining activity at 0.1 µM / remaining activity at 0.5 µM: read-out: % Enzyme Activity (relative to DMSO controls)
Excerpt: as §1

[5] = biological target: 363 human kinases (including Aurora A/B/C) (Homo sapiens, UniProt P36507); conditions: MEK2; for remaining activity at 0.1 µM: 100 nM; for remaining activity at 0.1 µM / remaining activity at 0.5 µM: read-out: % Enzyme Activity (relative to DMSO controls)
Excerpt: as §1

[6] = biological target: 363 human kinases (including Aurora A/B/C) (Homo sapiens, UniProt Q5VT25); conditions: MRCKa/CDC42BPA; for remaining activity at 0.1 µM: 100 nM; for remaining activity at 0.1 µM / remaining activity at 0.5 µM: read-out: % Enzyme Activity (relative to DMSO controls)
Excerpt: as §1

[7] = biological target: 363 human kinases (including Aurora A/B/C) (Homo sapiens, UniProt P49674); conditions: CK1epsilon, [ATP] 50 µM; for remaining activity at 0.1 µM: 100 nM; for remaining activity at 0.1 µM / remaining activity at 0.5 µM: read-out: % Enzyme Activity (relative to DMSO controls)
Excerpt: as §1

[8] = biological target: T2, 363 human kinases (including Aurora A/B/C) (Homo sapiens, UniProt Q13873); conditions: BMPR2, [ATP] 15 µM; for remaining activity at 0.1 µM: 100 nM; for remaining activity at 0.1 µM / remaining activity at 0.5 µM: read-out: % Enzyme Activity (relative to DMSO controls)
T2 sequence (Q13873 27-1038): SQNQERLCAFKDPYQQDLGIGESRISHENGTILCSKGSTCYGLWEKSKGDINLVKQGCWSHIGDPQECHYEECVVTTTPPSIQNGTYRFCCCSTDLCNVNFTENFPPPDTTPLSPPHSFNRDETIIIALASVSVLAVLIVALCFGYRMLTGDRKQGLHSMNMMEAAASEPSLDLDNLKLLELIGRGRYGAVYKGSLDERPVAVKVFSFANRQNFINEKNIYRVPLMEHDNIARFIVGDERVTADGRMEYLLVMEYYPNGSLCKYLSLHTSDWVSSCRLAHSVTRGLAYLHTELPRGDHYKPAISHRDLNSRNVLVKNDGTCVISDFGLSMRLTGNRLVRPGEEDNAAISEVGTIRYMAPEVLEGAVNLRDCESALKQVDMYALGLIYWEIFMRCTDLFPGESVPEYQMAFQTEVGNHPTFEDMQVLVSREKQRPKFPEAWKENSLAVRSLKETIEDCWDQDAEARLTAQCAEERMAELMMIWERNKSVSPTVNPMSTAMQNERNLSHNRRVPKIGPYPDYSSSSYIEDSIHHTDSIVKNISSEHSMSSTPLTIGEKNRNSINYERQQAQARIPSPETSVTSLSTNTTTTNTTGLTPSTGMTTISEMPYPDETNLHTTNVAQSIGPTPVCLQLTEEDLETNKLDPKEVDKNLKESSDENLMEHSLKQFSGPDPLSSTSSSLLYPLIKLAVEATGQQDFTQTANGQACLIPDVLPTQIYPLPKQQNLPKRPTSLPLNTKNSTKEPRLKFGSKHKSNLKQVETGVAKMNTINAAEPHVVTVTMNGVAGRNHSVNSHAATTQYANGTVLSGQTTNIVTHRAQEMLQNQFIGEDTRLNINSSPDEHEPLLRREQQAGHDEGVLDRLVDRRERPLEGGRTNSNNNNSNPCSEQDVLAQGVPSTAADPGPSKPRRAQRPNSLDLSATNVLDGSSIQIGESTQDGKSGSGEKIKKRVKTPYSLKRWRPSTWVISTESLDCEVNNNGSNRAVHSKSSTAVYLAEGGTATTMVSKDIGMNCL
Excerpt: as §1

[9] = biological target: T3, 363 human kinases (including Aurora A/B/C) (Homo sapiens, UniProt Q96KB5); conditions: PBK/TOPK; for remaining activity at 0.1 µM: 100 nM; for remaining activity at 0.1 µM / remaining activity at 0.5 µM: read-out: % Enzyme Activity (relative to DMSO controls)
T3 sequence (Q96KB5 1-322): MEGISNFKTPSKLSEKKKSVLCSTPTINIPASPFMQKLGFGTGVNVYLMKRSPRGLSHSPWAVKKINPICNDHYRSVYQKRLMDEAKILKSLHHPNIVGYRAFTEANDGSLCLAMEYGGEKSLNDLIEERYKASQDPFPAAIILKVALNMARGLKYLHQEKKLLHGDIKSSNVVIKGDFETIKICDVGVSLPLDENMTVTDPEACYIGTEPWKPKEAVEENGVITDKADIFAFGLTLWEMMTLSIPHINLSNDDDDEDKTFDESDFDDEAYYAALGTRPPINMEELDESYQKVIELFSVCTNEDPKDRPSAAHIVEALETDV
Excerpt: as §1

[10] = biological target: 363 human kinases (including Aurora A/B/C) (Homo sapiens, UniProt Q16288); conditions: TRKC; for remaining activity at 0.1 µM: 100 nM
Excerpt: as §1

[11] = biological target: 363 human kinases (including Aurora A/B/C) (Homo sapiens, UniProt P10721); conditions: c-Kit, [ATP] 100 µM; for remaining activity at 0.1 µM: 100 nM; for remaining activity at 0.1 µM / remaining activity at 0.5 µM: read-out: % Enzyme Activity (relative to DMSO controls)
Excerpt: as §1

[12] = biological target: 363 human kinases (including Aurora A/B/C) (Homo sapiens, UniProt O75676); conditions: MSK2/RPS6KA4; for remaining activity at 0.1 µM: 100 nM; for remaining activity at 0.1 µM / remaining activity at 0.5 µM: read-out: % Enzyme Activity (relative to DMSO controls)
Excerpt: as §1

[13] = read-out: % Enzyme Activity (relative to DMSO controls)

363 human kinases (including Aurora A/B/C) (Homo sapiens, UniProt Q5VT25), sequence (Q5VT25 whole entry): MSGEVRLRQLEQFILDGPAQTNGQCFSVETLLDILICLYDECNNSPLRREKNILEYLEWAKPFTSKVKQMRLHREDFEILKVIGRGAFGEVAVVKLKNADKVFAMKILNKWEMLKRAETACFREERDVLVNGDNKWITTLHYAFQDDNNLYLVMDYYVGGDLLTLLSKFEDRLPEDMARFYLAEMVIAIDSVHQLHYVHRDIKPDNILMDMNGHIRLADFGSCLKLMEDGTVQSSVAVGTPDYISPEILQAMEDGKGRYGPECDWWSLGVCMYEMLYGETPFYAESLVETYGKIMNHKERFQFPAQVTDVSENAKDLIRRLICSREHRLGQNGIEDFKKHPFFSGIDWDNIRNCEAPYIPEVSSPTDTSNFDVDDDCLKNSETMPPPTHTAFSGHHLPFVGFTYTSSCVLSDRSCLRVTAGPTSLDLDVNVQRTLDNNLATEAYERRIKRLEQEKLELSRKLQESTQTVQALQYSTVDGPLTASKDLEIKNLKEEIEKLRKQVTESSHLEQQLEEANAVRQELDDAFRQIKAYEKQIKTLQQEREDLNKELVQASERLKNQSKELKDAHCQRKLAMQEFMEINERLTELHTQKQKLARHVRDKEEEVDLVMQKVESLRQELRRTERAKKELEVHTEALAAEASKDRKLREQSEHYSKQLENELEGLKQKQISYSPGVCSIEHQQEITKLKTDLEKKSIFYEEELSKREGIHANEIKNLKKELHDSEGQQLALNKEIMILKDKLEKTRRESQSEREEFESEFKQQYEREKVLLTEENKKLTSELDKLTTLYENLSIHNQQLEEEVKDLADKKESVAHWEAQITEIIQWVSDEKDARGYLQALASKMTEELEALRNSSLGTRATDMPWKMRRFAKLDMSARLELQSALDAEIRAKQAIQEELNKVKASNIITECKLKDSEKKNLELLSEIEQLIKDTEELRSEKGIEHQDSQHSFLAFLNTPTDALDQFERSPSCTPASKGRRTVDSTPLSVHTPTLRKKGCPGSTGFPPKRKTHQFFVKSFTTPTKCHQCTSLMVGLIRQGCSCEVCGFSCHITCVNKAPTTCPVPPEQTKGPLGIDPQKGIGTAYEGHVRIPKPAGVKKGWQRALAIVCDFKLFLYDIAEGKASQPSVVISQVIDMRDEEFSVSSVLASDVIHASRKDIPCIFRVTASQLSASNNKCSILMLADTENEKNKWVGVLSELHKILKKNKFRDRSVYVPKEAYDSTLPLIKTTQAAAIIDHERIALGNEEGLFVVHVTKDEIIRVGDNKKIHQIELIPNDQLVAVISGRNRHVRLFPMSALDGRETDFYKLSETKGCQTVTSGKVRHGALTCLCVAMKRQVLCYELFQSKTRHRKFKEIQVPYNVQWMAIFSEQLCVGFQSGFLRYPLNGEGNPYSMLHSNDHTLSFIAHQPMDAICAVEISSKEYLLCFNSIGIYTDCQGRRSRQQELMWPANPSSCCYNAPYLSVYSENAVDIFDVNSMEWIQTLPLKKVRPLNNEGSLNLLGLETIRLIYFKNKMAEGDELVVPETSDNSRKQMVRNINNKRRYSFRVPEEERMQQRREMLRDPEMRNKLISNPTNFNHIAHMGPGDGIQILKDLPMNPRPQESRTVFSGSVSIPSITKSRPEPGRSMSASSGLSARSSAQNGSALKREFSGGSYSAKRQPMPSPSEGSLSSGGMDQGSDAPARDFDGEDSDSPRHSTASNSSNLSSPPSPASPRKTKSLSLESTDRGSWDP
363 human kinases (including Aurora A/B/C) (Homo sapiens, UniProt Q15375), sequence (Q15375 28-998): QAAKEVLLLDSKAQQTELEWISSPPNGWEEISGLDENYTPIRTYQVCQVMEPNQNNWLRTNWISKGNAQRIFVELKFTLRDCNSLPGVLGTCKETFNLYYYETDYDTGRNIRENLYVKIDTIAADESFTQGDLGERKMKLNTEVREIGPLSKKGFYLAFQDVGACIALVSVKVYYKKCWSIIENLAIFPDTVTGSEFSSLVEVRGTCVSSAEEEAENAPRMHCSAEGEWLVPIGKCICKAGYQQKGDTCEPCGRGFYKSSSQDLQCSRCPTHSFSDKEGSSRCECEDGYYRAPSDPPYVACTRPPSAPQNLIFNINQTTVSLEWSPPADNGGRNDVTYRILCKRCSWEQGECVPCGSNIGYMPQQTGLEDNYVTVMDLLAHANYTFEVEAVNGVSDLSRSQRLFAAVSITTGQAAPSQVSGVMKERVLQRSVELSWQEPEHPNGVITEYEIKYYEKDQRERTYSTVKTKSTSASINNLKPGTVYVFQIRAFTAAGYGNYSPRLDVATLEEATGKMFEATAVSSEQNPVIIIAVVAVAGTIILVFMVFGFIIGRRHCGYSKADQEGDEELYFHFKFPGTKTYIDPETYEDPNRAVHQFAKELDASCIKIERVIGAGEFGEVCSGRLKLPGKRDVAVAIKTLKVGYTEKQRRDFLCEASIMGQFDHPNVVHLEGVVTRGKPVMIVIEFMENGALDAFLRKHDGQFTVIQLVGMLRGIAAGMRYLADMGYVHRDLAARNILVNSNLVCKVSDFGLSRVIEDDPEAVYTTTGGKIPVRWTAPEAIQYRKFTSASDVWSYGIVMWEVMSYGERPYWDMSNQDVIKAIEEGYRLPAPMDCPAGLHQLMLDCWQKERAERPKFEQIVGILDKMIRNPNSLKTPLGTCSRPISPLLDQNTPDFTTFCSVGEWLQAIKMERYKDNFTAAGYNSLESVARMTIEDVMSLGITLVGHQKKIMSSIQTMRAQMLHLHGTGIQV
363 human kinases (including Aurora A/B/C) (Homo sapiens, UniProt Q13464), sequence (Q13464 whole entry): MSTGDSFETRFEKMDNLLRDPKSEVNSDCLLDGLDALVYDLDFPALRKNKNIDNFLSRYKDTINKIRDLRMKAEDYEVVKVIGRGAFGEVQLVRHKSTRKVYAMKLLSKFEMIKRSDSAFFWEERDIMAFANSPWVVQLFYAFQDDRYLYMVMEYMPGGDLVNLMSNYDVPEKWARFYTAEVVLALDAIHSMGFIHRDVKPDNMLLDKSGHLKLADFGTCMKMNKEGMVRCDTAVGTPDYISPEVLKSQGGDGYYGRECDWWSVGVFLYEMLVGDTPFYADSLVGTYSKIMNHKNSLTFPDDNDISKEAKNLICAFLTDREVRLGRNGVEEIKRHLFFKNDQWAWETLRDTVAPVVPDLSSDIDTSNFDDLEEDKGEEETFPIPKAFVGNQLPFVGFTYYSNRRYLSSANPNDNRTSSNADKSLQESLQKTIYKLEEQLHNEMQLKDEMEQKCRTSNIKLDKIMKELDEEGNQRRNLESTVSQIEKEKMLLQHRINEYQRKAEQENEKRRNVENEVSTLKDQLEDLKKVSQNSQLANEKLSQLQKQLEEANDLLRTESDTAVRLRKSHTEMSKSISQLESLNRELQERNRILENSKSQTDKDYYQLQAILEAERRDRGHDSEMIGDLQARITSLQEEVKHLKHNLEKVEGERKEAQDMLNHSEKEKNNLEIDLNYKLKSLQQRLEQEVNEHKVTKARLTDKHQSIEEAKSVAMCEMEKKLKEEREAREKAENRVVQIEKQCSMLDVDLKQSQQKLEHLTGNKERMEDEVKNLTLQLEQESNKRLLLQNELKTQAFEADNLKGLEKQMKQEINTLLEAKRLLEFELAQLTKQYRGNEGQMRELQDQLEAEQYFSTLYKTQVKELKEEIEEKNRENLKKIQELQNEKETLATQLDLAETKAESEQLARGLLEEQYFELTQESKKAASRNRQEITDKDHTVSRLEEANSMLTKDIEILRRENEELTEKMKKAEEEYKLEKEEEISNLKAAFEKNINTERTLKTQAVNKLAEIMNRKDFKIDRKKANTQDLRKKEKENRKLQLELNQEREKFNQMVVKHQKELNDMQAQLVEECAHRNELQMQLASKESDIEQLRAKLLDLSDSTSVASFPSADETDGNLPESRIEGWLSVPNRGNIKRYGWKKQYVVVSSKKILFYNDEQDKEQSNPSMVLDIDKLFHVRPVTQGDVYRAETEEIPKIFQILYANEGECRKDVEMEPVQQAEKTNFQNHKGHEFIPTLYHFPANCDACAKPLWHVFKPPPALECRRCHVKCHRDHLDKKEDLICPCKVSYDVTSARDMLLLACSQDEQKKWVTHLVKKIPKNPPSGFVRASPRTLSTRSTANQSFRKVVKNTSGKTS
363 human kinases (including Aurora A/B/C) (Homo sapiens, UniProt P36507), sequence (P36507 whole entry): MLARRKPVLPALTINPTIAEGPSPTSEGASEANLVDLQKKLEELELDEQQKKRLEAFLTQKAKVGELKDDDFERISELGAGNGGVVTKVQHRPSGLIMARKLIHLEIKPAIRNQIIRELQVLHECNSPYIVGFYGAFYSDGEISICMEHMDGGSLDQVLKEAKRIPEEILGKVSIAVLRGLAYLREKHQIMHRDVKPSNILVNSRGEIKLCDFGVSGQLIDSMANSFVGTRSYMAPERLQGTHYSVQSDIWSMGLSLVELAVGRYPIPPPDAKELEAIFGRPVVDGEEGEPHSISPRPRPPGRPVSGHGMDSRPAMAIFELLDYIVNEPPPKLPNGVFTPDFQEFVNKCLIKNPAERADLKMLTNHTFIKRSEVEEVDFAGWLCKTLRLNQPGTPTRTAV
363 human kinases (including Aurora A/B/C) (Homo sapiens, UniProt P49674), sequence (P49674 whole entry): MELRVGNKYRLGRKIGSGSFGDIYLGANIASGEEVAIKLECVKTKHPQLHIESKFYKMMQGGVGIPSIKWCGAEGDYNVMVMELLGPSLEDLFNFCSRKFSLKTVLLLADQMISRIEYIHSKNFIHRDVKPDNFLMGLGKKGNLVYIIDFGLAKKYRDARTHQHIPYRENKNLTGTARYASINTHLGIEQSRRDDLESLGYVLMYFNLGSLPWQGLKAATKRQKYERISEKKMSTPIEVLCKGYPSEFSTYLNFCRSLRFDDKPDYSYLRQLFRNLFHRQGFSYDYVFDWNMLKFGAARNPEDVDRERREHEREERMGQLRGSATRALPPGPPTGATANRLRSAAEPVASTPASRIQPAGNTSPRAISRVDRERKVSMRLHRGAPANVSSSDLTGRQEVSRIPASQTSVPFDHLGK

SMILES | remaining activity at 0.1 µM [1] | remaining activity at 0.1 µM [2] | remaining activity at 0.1 µM [3] | remaining activity at 0.1 µM [4] | remaining activity at 0.1 µM [5] | remaining activity at 0.1 µM [6] | remaining activity at 0.1 µM [7] | remaining activity at 0.1 µM [8] | remaining activity at 0.1 µM [9] | remaining activity at 0.1 µM [10, 13] | remaining activity at 0.1 µM [11] | remaining activity at 0.1 µM [12] | remaining activity at 0.5 µM ([1]; 500 nM) | remaining activity at 0.5 µM ([2]; 500 nM) | remaining activity at 0.5 µM ([3]; 500 nM) | remaining activity at 0.5 µM ([4]; 500 nM) | remaining activity at 0.5 µM ([5]; 500 nM) | remaining activity at 0.5 µM ([6]; 500 nM) | remaining activity at 0.5 µM ([7]; 500 nM) | remaining activity at 0.5 µM ([8]; 500 nM) | other results
CCn1cc(-c2ccnc3[nH]c(-c4cccc(CN(C)C)c4)cc23)c(-c2ccc(NC(=O)N(C)C)cc2)n1 [GSK1070916] | 89% | 91.8% | 101% | 99% | 98.2% | 108% | 95.8% | 147% | 97.5% | 78.6% | 76.5% | 103% |  |  |  |  |  |  |  |  | 
O=C(O)[C@]1(Cc2cccc(Nc3nccs3)n2)CC[C@@H](Oc2cccc(Cl)c2F)CC1 [MK-5108] | 35.6% | 87.7% | 99.8% | 32.5% | 95.6% | 93.7% | 98.1% | 46.4% | 93.9% | 0.99% | 107% | 103% | 9.76% | 48.4% | 102% | 24.7% | 90.3% | 103% | 91.5% | 37% | remaining activity at 0.5 µM ([9]; 500 nM): 95.4%; remaining activity at 0.5 µM ([11]; 500 nM): 85.6%; remaining activity at 0.5 µM ([12]; 500 nM): 98.8%
O=C(c1cccc(Cl)c1F)N1CCN(Cc2cccc(Nc3nccs3)n2)CC1 [MK-8745] |  |  |  |  |  |  |  |  |  |  |  |  | 63.1% | 46.6% | 98.9% | 23% | 95.2% | 104% | 94.9% | 106% | % Enzyme Activity (relative to DMSO controls) ([1]; 500 nM): 62.14%; % Enzyme Activity (relative to DMSO controls) ([2]; 500 nM): 46.05%; % Enzyme Activity (relative to DMSO controls) ([3]; 500 nM): 98.74%; % Enzyme Activity (relative to DMSO controls) ([4]; 500 nM): 21.35%; % Enzyme Activity (relative to DMSO controls) ([5]; 500 nM): 93.13%; % Enzyme Activity (relative to DMSO controls) ([6]; 500 nM): 103.58%; % Enzyme Activity (relative to DMSO controls) ([7]; 500 nM): 93.98%; % Enzyme Activity (relative to DMSO controls) ([8]; 500 nM): 98.44%; % Enzyme Activity (relative to DMSO controls) ([9]; 500 nM): 91.24%; remaining activity at 0.5 µM ([9]; 500 nM): 94.4%; % Enzyme Activity (relative to DMSO controls) ([10]; 500 nM): 3.01%; remaining activity at 0.5 µM ([10]; 500 nM, read-out: % Enzyme Activity (relative to DMSO controls)): 3.12%; % Enzyme Activity (relative to DMSO controls) ([11]; 500 nM): 86.62%; remaining activity at 0.5 µM ([11]; 500 nM): 88.2%; % Enzyme Activity (relative to DMSO controls) ([12]; 500 nM): 96.01%; remaining activity at 0.5 µM ([12]; 500 nM): 96.1%
